Test results from US20230278972A1, “SUBSTITUTED HALOALKYL SULFONANILIDE HERBICIDES” (FMC Corporation, priority 2020, published 2023).

Legend:
Type in all cases: in vivo
[1] = tested on: wheat (Triticum aestivum); experiment: Test A postemergence, wheat; settings: Postemergence, 0 to 100 scale (0 no effect, 100 complete control); for Plant response rating, Wheat: 125 g ai/ha, visual injury approx. 10 days; for Wheat plant response rating: 500 g ai/ha, visual injury vs untreated controls after approx. 10 days
Procedure, shortened: (§1)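 Directed soil spray at planting gave the preemergence treatment, while foliar application to one- to two-leaf seedlings (2–10 cm) gave the postemergence one; pots held a loam and sand mixture and chemicals were carried in a non-phytotoxic solvent with surfactant.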

[2] = tested on: barnyardgrass (Echinochloa crus-galli); experiment: Test A postemergence, barnyardgrass; settings: Postemergence, 0 to 100 scale (0 no effect, 100 complete control); for Plant response rating, Barnyardgrass: 125 g ai/ha, visual injury approx. 10 days; for Barnyardgrass plant response rating: 500 g ai/ha, visual injury vs untreated controls after approx. 10 days
Procedure, shortened: as §1

corn (Zea mays) = experiment: Test A postemergence, corn; settings: Postemergence, 0 to 100 scale (0 no effect, 100 complete control); for Plant response rating, Corn: 125 g ai/ha, visual injury approx. 10 days; for Corn plant response rating: 500 g ai/ha, visual injury vs untreated controls after approx. 10 days
Procedure, shortened: (§2)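 Compounds in non-phytotoxic solvent with surfactant. Soil: loam/sand. Preemergence via directed soil spray after seeding; postemergence on seedlings 2–10 cm, one- to two-leaf.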

[3] = tested on: ragweed (common ragweed, Ambrosia artemisiifolia); experiment: Test A postemergence, ragweed; settings: Postemergence, 0 to 100 scale (0 no effect, 100 complete control); for Plant response rating, Ragweed: 125 g ai/ha, visual injury approx. 10 days; for Ragweed plant response rating: 500 g ai/ha, visual injury vs untreated controls after approx. 10 days
Procedure, shortened: as §2

[4] = tested on: pigweed (Amaranthus retroflexus); experiment: Test A postemergence, pigweed; settings: Postemergence, 0 to 100 scale (0 no effect, 100 complete control); for Plant response rating, Pigweed: 125 g ai/ha, visual injury approx. 10 days; for Pigweed plant response rating: 500 g ai/ha, visual injury vs untreated controls after approx. 10 days
Procedure, shortened: as §2

[5] = tested on: galium (catchweed bedstraw, Galium aparine); experiment: Test A postemergence, galium; settings: Postemergence, 0 to 100 scale (0 no effect, 100 complete control); for Plant response rating, Galium: 125 g ai/ha, visual injury approx. 10 days; for Galium plant response rating: 500 g ai/ha, visual injury vs untreated controls after approx. 10 days
Procedure, shortened: as §1

[6] = tested on: Foxtail, Giant (giant foxtail, Setaria faberi); experiment: Test A preemergence, Foxtail, Giant; settings: Preemergence; for Foxtail, Giant plant response rating: 125 g ai/ha, visual injury on 0 to 100 scale (0 no effect, 100 complete control), approximately 10 days; for Plant response rating, Foxtail, Giant: 500 g ai/ha, 0 to 100 scale (0 no effect, 100 complete control)
Procedure, shortened: as §2

[7] = tested on: Ryegrass, Italian (Italian ryegrass, Lolium multiflorum); experiment: Test A preemergence, Ryegrass, Italian; settings: Preemergence; for Ryegrass, Italian plant response rating: 125 g ai/ha, visual injury on 0 to 100 scale (0 no effect, 100 complete control), approximately 10 days; for Plant response rating, Ryegrass, Italian: 500 g ai/ha, 0 to 100 scale (0 no effect, 100 complete control)
Procedure, shortened: as §2

[8] = tested on: Foxtail, Giant (giant foxtail, Setaria faberi); experiment: Test A postemergence, Foxtail, Giant; settings: Postemergence, 0 to 100 scale (0 no effect, 100 complete control); for Plant response rating, Foxtail, Giant: 125 g ai/ha, visual injury approx. 10 days; for Foxtail, Giant plant response rating: 500 g ai/ha, visual injury vs untreated controls after approx. 10 days
Procedure, shortened: as §2

[9] = tested on: pigweed (Amaranthus retroflexus); experiment: Test A preemergence, pigweed; settings: for Pigweed plant response rating: 125 g ai/ha, visual injury on 0 to 100 scale (0 no effect, 100 complete control), approximately 10 days; for Plant response rating, Pigweed: 500 g ai/ha, 0 to 100 scale (0 no effect, 100 complete control)
Procedure, shortened: as §1

kochia (Bassia scoparia) [10] = experiment: Test A preemergence, kochia; settings: Preemergence; for Kochia plant response rating: 125 g ai/ha, visual injury on 0 to 100 scale (0 no effect, 100 complete control), approximately 10 days; for Plant response rating, Kochia: 500 g ai/ha, 0 to 100 scale (0 no effect, 100 complete control)
Procedure, shortened: as §2

kochia (Bassia scoparia) [11] = experiment: Test A postemergence, kochia; settings: Postemergence, 0 to 100 scale (0 no effect, 100 complete control); for Plant response rating, Kochia: 125 g ai/ha, visual injury approx. 10 days; for Kochia plant response rating: 500 g ai/ha, visual injury vs untreated controls after approx. 10 days
Procedure, shortened: as §2

[12] = tested on: ragweed (common ragweed, Ambrosia artemisiifolia); experiment: Test A preemergence, ragweed; settings: Preemergence; for Ragweed plant response rating: 125 g ai/ha, visual injury on 0 to 100 scale (0 no effect, 100 complete control), approximately 10 days; for Plant response rating, Ragweed: 500 g ai/ha, 0 to 100 scale (0 no effect, 100 complete control)
Procedure, shortened: as §2

[13] = tested on: barnyardgrass (Echinochloa crus-galli); experiment: Test A preemergence, barnyardgrass; settings: Preemergence; for Barnyardgrass plant response rating: 125 g ai/ha, visual injury on 0 to 100 scale (0 no effect, 100 complete control), approximately 10 days; for Plant response rating, Barnyardgrass: 500 g ai/ha, 0 to 100 scale (0 no effect, 100 complete control)
Procedure, shortened: as §2

[14] = tested on: blackgrass (Alopecurus myosuroides); experiment: Test A postemergence, blackgrass; settings: Postemergence, 0 to 100 scale (0 no effect, 100 complete control); for Plant response rating, Blackgrass: 125 g ai/ha, visual injury approx. 10 days; for Blackgrass plant response rating: 500 g ai/ha, visual injury vs untreated controls after approx. 10 days
Procedure, shortened: as §2

[15] = tested on: Ryegrass, Italian (Italian ryegrass, Lolium multiflorum); experiment: Test A postemergence, Ryegrass, Italian; settings: Postemergence, 0 to 100 scale (0 no effect, 100 complete control); for Plant response rating, Ryegrass, Italian: 125 g ai/ha, visual injury approx. 10 days; for Ryegrass, Italian plant response rating: 500 g ai/ha, visual injury vs untreated controls after approx. 10 days
Procedure, shortened: as §2

SMILES | Plant response rating, Wheat [1] | Wheat plant response rating [1] | Plant response rating, Barnyardgrass [2] | Barnyardgrass plant response rating [2] | Plant response rating, Corn (corn (Zea mays)) | Corn plant response rating (corn (Zea mays)) | Plant response rating, Ragweed [3] | Ragweed plant response rating [3] | Plant response rating, Pigweed [4] | Pigweed plant response rating [4] | Plant response rating, Galium [5] | Galium plant response rating [5] | Foxtail, Giant plant response rating [6] | Plant response rating, Foxtail, Giant [6] | Ryegrass, Italian plant response rating [7] | Plant response rating, Ryegrass, Italian [7] | Plant response rating, Foxtail, Giant [8] | Foxtail, Giant plant response rating [8] | Pigweed plant response rating [9] | Plant response rating, Pigweed [9] | other results
CCn1nc(C)cc(-c2cc(NS(=O)(=O)C(F)(F)F)c(C)cc2C)c1=O [Compound 68] | 70 | 80 | 60 | 80 | 10 | 20 | 50 | 80 | 20 | 50 | 50 | 80 | 100 | 100 | 90 | 100 | 20 | 90 | 70 | 90 | Kochia plant response rating (kochia (Bassia scoparia) [10]): 70; Plant response rating, Kochia (kochia (Bassia scoparia) [10]): 90; Plant response rating, Kochia (kochia (Bassia scoparia) [11]): 10; Kochia plant response rating (kochia (Bassia scoparia) [11]): 50; Ragweed plant response rating [12]: 30; Plant response rating, Ragweed [12]: 90; Barnyardgrass plant response rating [13]: 100; Plant response rating, Barnyardgrass [13]: 100; Plant response rating, Blackgrass [14]: 70; Blackgrass plant response rating [14]: 70; Plant response rating, Ryegrass, Italian [15]: 40; Ryegrass, Italian plant response rating [15]: 80
Cc1cc(C)c(-c2cc(Br)nn(C)c2=O)cc1NS(=O)(=O)C(F)(F)F [Compound 69] | 60 | 70 | 0 | 80 | 10 | 20 | 60 | 80 | 70 | 90 | 60 | 70 | 100 | 100 | 100 | 100 | 80 | 90 | 80 | 100 | Kochia plant response rating (kochia (Bassia scoparia) [10]): 70; Plant response rating, Kochia (kochia (Bassia scoparia) [10]): 90; Plant response rating, Kochia (kochia (Bassia scoparia) [11]): 40; Kochia plant response rating (kochia (Bassia scoparia) [11]): 60; Ragweed plant response rating [12]: 50; Plant response rating, Ragweed [12]: 90; Barnyardgrass plant response rating [13]: 40; Plant response rating, Barnyardgrass [13]: 90; Plant response rating, Blackgrass [14]: 0; Blackgrass plant response rating [14]: 50; Plant response rating, Ryegrass, Italian [15]: 40; Ryegrass, Italian plant response rating [15]: 70
COc1cc(-c2cc(NS(=O)(=O)C(F)(F)F)c(C)cc2C)c(=O)n(C)n1 [Compound 70] | 0 | 30 | 0 | 50 | 0 | 0 | 0 | 0 | 0 | 20 | 60 | 80 | 10 | 90 | 50 | 60 | 0 | 20 | 80 | 80 | Kochia plant response rating (kochia (Bassia scoparia) [10]): 0; Plant response rating, Kochia (kochia (Bassia scoparia) [10]): 0; Plant response rating, Kochia (kochia (Bassia scoparia) [11]): 0; Kochia plant response rating (kochia (Bassia scoparia) [11]): 0; Ragweed plant response rating [12]: 10; Plant response rating, Ragweed [12]: 70; Barnyardgrass plant response rating [13]: 90; Plant response rating, Barnyardgrass [13]: 100; Plant response rating, Blackgrass [14]: 30; Blackgrass plant response rating [14]: 30; Plant response rating, Ryegrass, Italian [15]: 0; Ryegrass, Italian plant response rating [15]: 0
Cc1cc(C)c(-c2cc(C(F)(F)F)nn(C)c2=O)cc1NS(=O)(=O)C(F)(F)F [Compound 71] | 40 | 70 | 0 | 80 | 0 | 30 | 0 | 0 | 0 | 60 | 50 | 80 | 80 | 100 | 70 | 100 | 0 | 90 | 40 | 60 | Kochia plant response rating (kochia (Bassia scoparia) [10]): 80; Plant response rating, Kochia (kochia (Bassia scoparia) [10]): 40; Plant response rating, Kochia (kochia (Bassia scoparia) [11]): 20; Kochia plant response rating (kochia (Bassia scoparia) [11]): 40; Ragweed plant response rating [12]: 10; Plant response rating, Ragweed [12]: 60; Barnyardgrass plant response rating [13]: 0; Plant response rating, Barnyardgrass [13]: 100; Plant response rating, Blackgrass [14]: 0; Blackgrass plant response rating [14]: 70; Plant response rating, Ryegrass, Italian [15]: 70; Ryegrass, Italian plant response rating [15]: 80
Cc1cc(C)c(-c2ccnn(CC(C)C)c2=O)cc1NS(=O)(=O)C(F)(F)F [Compound 77] | 0 | 70 | 0 | 20 | 0 | 60 | 0 | 10 | 0 | 0 | 0 | 40 | 90 | 100 | 0 | 90 | 0 | 40 | 20 | 30 | Kochia plant response rating (kochia (Bassia scoparia) [10]): 0; Plant response rating, Kochia (kochia (Bassia scoparia) [10]): 0; Plant response rating, Kochia (kochia (Bassia scoparia) [11]): 0; Kochia plant response rating (kochia (Bassia scoparia) [11]): 10; Ragweed plant response rating [12]: 0; Plant response rating, Ragweed [12]: 20; Barnyardgrass plant response rating [13]: 90; Plant response rating, Barnyardgrass [13]: 90; Plant response rating, Blackgrass [14]: 0; Blackgrass plant response rating [14]: 0; Plant response rating, Ryegrass, Italian [15]: 0; Ryegrass, Italian plant response rating [15]: 0
